# Laboratory results taken from US20260166039A1 (SCHRÖDINGER, INC., priority 2022, published 2026).
# Target: T1, Wee1 kinase domain (Homo sapiens, UniProt P30291)
# T1 construct: Wee1 kinase domain was purchased from Carna (catalog #05-177); purchased Carna 05-177
# Experiment: Wee1 Kinase Biochemical Assay (ADP-Glo)
# Settings: 1 nM Wee1 enzyme, 15 uM ATP, 4 hours at 25° C
# Procedure: Wee1 Kinase Biochemical Assay Protocol
# Wee1 kinase domain was purchased from Carna (catalog #05-177). Wee1 kinase activity was determined with Poly(Lys,Tyr 4:1) hydrobromide as a substrate (Sigma-Aldrich) and by measuring ADP production using the ADP-Glo Kinase Assay kit (Promega) following the manufacturer's instructions. The kinase reaction was performed using the following conditions:
# Buffer: 40 mM Tris-HCl, 20 mM magnesium chloride, supplemented with 0.1 mg/mL bovine serum albumin and 2 mM DTT. The final reaction mix contained 1 nM Wee1 enzyme, 15 uM ATP, and 2 ng/mL Poly(Lys,Tyr 4:1) hydrobromide substrate. The reaction time was 4 hours at 25° C.
# The ADP-Glo signal was measured using the Envision plate reader and the percentage inhibition of kinase activity calculated for each inhibitor tested. Percent inhibition of Wee1 kinase activity was calculated based on the following formula.
# [formula] • SSample: the signal of compounds • SHigh Ctrl: the signal of high control (DMSO) • SLow Ctrl: the signal of low control (positive control Wee1 inhibitor at saturating concentration)
# T1 sequence (P30291 299-569 limits assumed): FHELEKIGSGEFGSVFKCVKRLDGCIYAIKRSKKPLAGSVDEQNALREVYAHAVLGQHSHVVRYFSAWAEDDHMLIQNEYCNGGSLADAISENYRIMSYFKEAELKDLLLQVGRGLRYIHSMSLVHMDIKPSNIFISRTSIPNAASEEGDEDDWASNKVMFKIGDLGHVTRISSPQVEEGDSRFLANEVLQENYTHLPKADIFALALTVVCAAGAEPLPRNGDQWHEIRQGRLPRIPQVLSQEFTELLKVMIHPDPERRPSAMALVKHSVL
row,SMILES,IC50 [nM]
1,"CN1C[C@@H]2C[C@H]1CN2c1ccc(Nc2ncc3c(n2)N(c2cccc(C(F)F)n2)[C@@H]2CC(C)(C)OC[C@]32C)cc1 [Example 813, (4bR,8aR)-9-(6-(difluoromethyl)pyridin-2-yl)-4b,7,7-trimethyl-N-(4-((1S,4S)-5-methyl-2,5-diazabicyclo[2.2.1]heptan-2-yl)phenyl)-4b,5,7,8,8a,9-hexahydropyrano[3′,4′:4,5]pyrrolo[2,3-d]pyrimidin-2-amine]",< 10

# Same assay, conditions: Wee1 kinase domain, 15 uM ATP, ADP-Glo
row,SMILES,IC50 [nM]
1,"CNCc1cccc(N2c3nc(Nc4ccc(N5C(=O)CC[C@@H]5C)cc4)ncc3[C@@]3(C)COC(C)(C)C[C@@H]23)n1 (single isomer, unassigned) [Example 28]",< 10
2,"Cc1cc(Nc2ncc3c(n2)N(c2cccc(N=S(C)(C)=O)n2)[C@H]2CC(C)(C)OC[C@@]32C)ccc1[C@H]1CCNC1 (single isomer, unassigned) [Example 150]",10 to 100
3,"C[C@@H]1CN(c2ccc(Nc3ncc4c(n3)N(c3cccc(N5C(=O)OC[C@@H]5C)n3)[C@H]3CC(C)(C)OC[C@@]43C)cc2)CCN1C (single isomer, unassigned) [Example 312]",10 to 100
4,"C[C@H]1COC(=O)N1c1cccc(N2c3nc(Nc4ccc(C5CN(C)C5)cc4)ncc3[C@]3(C)COC(C)(C)C[C@H]23)n1 (single isomer, unassigned) [Example 309]",10 to 100
5,"CN1CCC(n2cnc(Nc3ncc4c(n3)N(c3cccc(N=S(C)(C)=O)n3)[C@H]3CC(C)(C)OC[C@@]43C)c2)CC1 (single isomer, unassigned) [Example 206]",100 to 1000
6,"Cc1cc(Nc2ncc3c(n2)N(c2cccc(N4C(=O)OC[C@@H]4C)n2)[C@H]2CC(C)(C)OC[C@@]32C)ccc1N1C[C@H]2C[C@@H]1CN2C (single isomer, unassigned) [Example 288]",10 to 100
7,"CC(=O)Nc1ncc2c(n1)N(c1cccc(N=S(C)(C)=O)n1)[C@@H]1CC(C)(C)OC[C@]21C (single isomer, unassigned) [Example 398]",10 to 100
8,"C[C@H]1COC(=O)N1c1cccc(N2c3nc(Nc4ccc([C@H]5CCN(C)C5)cc4)ncc3[C@]3(C)COC(C)(C)C[C@H]23)n1 (single isomer, unassigned) [Example 307]",< 10
9,"C[C@H]1COC(=O)N1c1cccc(N2c3nc(Nc4ccc([C@@]5(C)CCN(C)C5)cc4)ncc3[C@]3(C)COC(C)(C)C[C@H]23)n1 (single isomer, unassigned) [Example 348]",10 to 100
10,"CNCc1cccc(N2c3nc(Nc4ccc(N5CCS(=N)(=O)CC5)cc4)ncc3[C@]3(C)COC(C)(C)C[C@H]23)n1 (single isomer, unassigned) [Example 50]",10 to 100
11,"CN1CC2(C1)CN(c1ccc(Nc3ncc4c(n3)N(c3cccc(N=S(C)(C)=O)n3)[C@H]3CC(C)(C)OC[C@@]43C)cc1)C2 (single isomer, unassigned) [Example 220]",100 to 1000
12,"CN1C[C@@H]2C[C@H]1CN2c1ccc(Nc2ncc3c(n2)N(c2cccc(N=S(C)(C)=O)n2)[C@H]2CC(C)(C)OC[C@@]32C)cc1F (single isomer, unassigned) [Example 179]",100 to 1000
13,"Cc1cc(Nc2ncc3c(n2)N(c2cccc(C(C)(C)O)n2)[C@H]2CC(C)(C)OC[C@@]32C)ccc1C1CCN(C)CC1 (single isomer, unassigned) [Example 7]",10 to 100
14,"CC1(C)C[C@@H]2N(c3cccc(N=S(C)(C)=O)n3)c3nc(Nc4ccc([C@@H]5CCCN5)nc4)ncc3[C@]2(C)CO1 (single isomer, unassigned) [Example 213]",10 to 100
15,"CN1CCC(c2ccc(Nc3ncc4c(n3)N(c3cccc(N=S(C)(C)=O)n3)[C@H]3CC(C)(C)OC[C@@]43C)cc2F)CC1 (single isomer, unassigned) [Example 178]",100 to 1000
16,"C[C@H]1COC(=O)N1c1cccc(N2c3nc(Nc4ccc(N5C[C@H]6C[C@@H]5CN6C)c(F)c4)ncc3[C@]3(C)COC(C)(C)C[C@H]23)n1 (single isomer, unassigned) [Example 290]",< 10
17,"CN1CCN(c2ccc(Nc3ncc4c(n3)N(c3cccc(N=S(C)(C)=O)n3)[C@H]3CC(C)(C)OC[C@@]43C)cc2)CC1 [Example 99, dimethyl((6-((4bS,8aS)-4b,7,7-trimethyl-2-((4-(4-methylpiperazin-1-yl)phenyl)amino)-4b,7,8,8a-tetrahydropyrano[3′,4′:4,5]pyrrolo[2,3-d]pyrimidin-9(5H)-yl)pyridin-2-yl)imino)-16-sulfanone]",100 to 1000
18,"C[C@H]1COC(=O)N1c1cccc(N2c3nc(Nc4ccc(N5CCN(C)CC5)nc4)ncc3[C@]3(C)COC(C)(C)C[C@H]23)n1 (single isomer, unassigned) [Example 240]",100 to 1000

# Same assay, conditions: class symbols; 1 nM Wee1 enzyme, 15 uM ATP, 4 hours at 25° C.
row,SMILES,IC50 [nM]
1,"CC1(C)C[C@@H]2N(c3cccc(N4CCOC4=O)n3)c3nc(Nc4ccc([C@@H]5CNCC5(F)F)cc4)ncc3[C@]2(C)CO1 [Example 681, 3-(6-((4bS,8aS)-2-((4-((R)-4,4-difluoropyrrolidin-3-yl)phenyl)amino)-4b,7,7-trimethyl-4b,7,8,8a-tetrahydropyrano[3′,4′:4,5]pyrrolo[2,3-d]pyrimidin-9(5H)-yl)pyridin-2-yl)oxazolidin-2-one]",10 to 100
2,"CN1CCC(n2ccc(Nc3ncc4c(n3)N(c3ccccn3)[C@@H]3CC(C)(C)OC[C@]43C)cc2=O)CC1 (single isomer, unassigned) [Example 806]",< 10
3,"CN1CCN(c2ccc(Nc3ncc4c(n3)N(c3cccc(N5CCCC5=O)n3)[C@H]3CC(C)(C)OC[C@@]43C)cc2)CC1 (single isomer, unassigned) [Example 586]",10 to 100
4,"CN1C[C@@H]2C[C@H]1CN2c1ccc(Nc2ncc3c(n2)N(c2cccc(C(C)(C)O)n2)[C@H]2CC(C)(C)OC[C@@]32C)cc1Cl (single isomer, unassigned) [Example 436]",10 to 100
5,"CN1CC(c2ccc(Nc3ncc4c(n3)N(c3cccc(N5CCOC5=O)n3)[C@H]3CC(C)(C)OC[C@@]43C)cc2)C1 [Example 699, 3-(6-((4bS,8aS)-4b,7,7-trimethyl-2-((4-(1-methylazetidin-3-yl)phenyl)amino)-4b,7,8,8a-tetrahydropyrano[3′,4′:4,5]pyrrolo[2,3-d]pyrimidin-9(5H)-yl)pyridin-2-yl)oxazolidin-2-one]",100 to 1000
6,"CN[C@H](C)c1cccc(N2c3nc(Nc4ccc(N5CCOCC5)cc4)ncc3[C@]3(C)COC(C)(C)C[C@H]23)n1 (single isomer, unassigned) [Example 550]",100 to 1000
7,"CN1C[C@H]2C[C@@H]1CN2c1ccc(Nc2ncc3c(n2)N(c2cccc(N4C(=O)OCC4(C)C)n2)[C@@H]2CC(C)(C)OC[C@]32C)cc1 [Example 795, 4,4-dimethyl-3-(6-((4bR,8aR)-4b,7,7-trimethyl-2-((4-((1R,4R)-5-methyl-2,5-diazabicyclo[2.2.1]heptan-2-yl)phenyl)amino)-4b,7,8,8a-tetrahydropyrano[3′,4′:4,5]pyrrolo[2,3-d]pyrimidin-9(5H)-yl)pyridin-2-yl)oxazolidin-2-one]",< 10
8,"CC1(C)C[C@@H]2N(c3cccc(N4CCCC4=O)n3)c3nc(Nc4ccc(C5CNC5)cc4)ncc3[C@]2(C)CO1 [Example 663, 1-(6-((4bS,8aS)-2-((4-(azetidin-3-yl)phenyl)amino)-4b,7,7-trimethyl-4b,7,8,8a-tetrahydropyrano[3′,4′:4,5]pyrrolo[2,3-d]pyrimidin-9(5H)-yl)pyridin-2-yl)pyrrolidin-2-one]",10 to 100
9,"CC1(C)C[C@H]2N(c3cccc(N=S(C)(C)=O)n3)c3nc(Nc4ccc(N5CCN6CCC5C6)cc4)ncc3[C@@]2(C)CO1 (single isomer, unassigned) [Example 511]",< 10
10,"CN1[C@@H]2C[C@H]1CN(c1ccc(Nc3ncc4c(n3)N(c3cccc(C(C)(C)O)n3)[C@H]3CC(C)(C)OC[C@@]43C)cc1)C2 (single isomer, unassigned) [Example 442]",100 to 1000
11,"CNCc1cccc(N2c3nc(NC(=O)C4CC4)ncc3[C@@]3(C)COC(C)(C)C[C@@H]23)n1 (single isomer, unassigned) [Example 762]",10 to 100
12,"CC1(C)C[C@@H]2N(c3ccc4c(n3)[C@](C)(N)CC4)c3nc(Nc4ccc(N5CCOCC5)cc4)ncc3[C@]2(C)CO1 (single isomer, unassigned) [Example 563]",100 to 1000
13,"CN1CC[C@H](c2ccc(Nc3ncc4c(n3)N(c3cccc(N5CCOC5=O)n3)[C@H]3CC(C)(C)OC[C@@]43C)cc2)C1 (single isomer, unassigned) [Example 603]",10 to 100
14,"Cc1cc(Nc2ncc3c(n2)N(c2cccc(N4CCCC4=O)n2)[C@H]2CC(C)(C)OC[C@@]32C)ccc1N1C[C@@H]2C[C@H]1CN2C [Example 653, 1-(6-((4bS,8aS)-4b,7,7-trimethyl-2-((3-methyl-4-((1S,4S)-5-methyl-2,5-diazabicyclo[2.2.1]heptan-2-yl)phenyl)amino)-4b,7,8,8a-tetrahydropyrano[3′,4′:4,5]pyrrolo[2,3-d]pyrimidin-9(5H)-yl)pyridin-2-yl)pyrrolidin-2-one]",10 to 100
15,"CN1CCC(n2cc(Nc3ncc4c(n3)N(c3cccc(N=S(C)(C)=O)c3)[C@H]3CC(C)(C)OC[C@@]43C)cn2)CC1 [Example 715, dimethyl((3-((4bS,8aS)-4b,7,7-trimethyl-2-((1-(1-methylpiperidin-4-yl)-1H-pyrazol-4-yl)amino)-4b,7,8,8a-tetrahydropyrano[3′,4′:4,5]pyrrolo[2,3-d]pyrimidin-9(5H)-yl)phenyl)imino)-16-sulfanone]",100 to 1000
